Test results reported in US11236086B2, “Substituted pyrrolopyridines as inhibitors of activin receptor-like kinase” (BLUEPRINT MEDICINES CORPORATION, priority 2017, dated 2022).

Target: T1, ALK2R206H (mutant ALK2, N-terminally tagged with GST) (Homo sapiens, UniProt Q04771, R206H)
T1 construct: purchased Carna Bioscience or ThermoFisher 09-148 or PV6232
T1 sequence (Q04771 21-509 R206H): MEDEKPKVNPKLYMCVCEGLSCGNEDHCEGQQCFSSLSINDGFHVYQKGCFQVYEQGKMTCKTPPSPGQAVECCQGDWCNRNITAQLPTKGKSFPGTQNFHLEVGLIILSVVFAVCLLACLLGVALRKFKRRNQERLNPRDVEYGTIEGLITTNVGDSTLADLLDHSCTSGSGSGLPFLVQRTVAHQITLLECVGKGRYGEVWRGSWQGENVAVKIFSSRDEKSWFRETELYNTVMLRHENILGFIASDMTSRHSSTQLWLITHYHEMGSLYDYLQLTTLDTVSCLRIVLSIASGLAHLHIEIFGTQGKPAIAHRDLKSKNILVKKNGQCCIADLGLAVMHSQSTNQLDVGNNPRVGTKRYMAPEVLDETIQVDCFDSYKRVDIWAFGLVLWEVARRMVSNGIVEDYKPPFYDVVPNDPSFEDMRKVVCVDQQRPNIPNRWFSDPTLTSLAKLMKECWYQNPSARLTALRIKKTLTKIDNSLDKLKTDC
Assay: ALK binding assay (LANTHASCREEN TR-FRET competitive binding, displacement of Kinase Tracer 178)
Details: read-out: Binding Assay (IC50 class)
Procedure: Example 10 ALK Binding Assays
Binding assays were conducted using the LANTHASCREEN® technology (ThermoFisher Scientific). LANTHASCREEN® is a competitive binding, displacement assay where the assumed steady state occupancy of the binding site is measured using a time-resolved, fluorescence energy transfer (TR-FRET) readout between a fluorescent tracer and Europium (Eu)-tagged antibody specific for the kinase or expression tag (e.g., GST) of interest. Displacement of the tracer by a compound of the disclosure reduces, and is directly proportional to, the TR-FRET between the tracer and the antibody. Tracer was used at a concentration equal to or near to its Kd for the kinase. The Eu-tagged antibody was typically used in excess to ensure sampling of all competent protein capable of binding the tracer.
For these assays, a mutant ALK2 was used that was N-terminally tagged with GST (ALK2R206H Carna Bioscience (09-148) or ALK2R206H ThermoFisher (PV6232)); a Eu-tagged anti-GST antibody (ThermoFisher) and Kinase Tracer 178 (ThermoFisher).
In all cases, the kinase (2-5 nM) was mixed with Eu-tagged antibody (4-10 nM) mix and tracer (50 nM) were incubated with test compound titrations prepared in 100% DMSO (1% DMSO final) for 30 minutes at room temperature. All reagents and compounds were dissolved in Kinase Buffer A (ThermoFisher) to achieve the final concentration. The plates were read on a PerkinElmer EnVision® multilabel plate reader or a BioTek Synergy Neo plate reader, and the assay signal was represented as a ratio of the TR-FRET emission (λex 330 nm, λ^em […] and λ^em 665 nm). This readout was normalized to 0% and 100% inhibited control wells, plotted against inhibitor concentration, and fitted to a 4-parameter log dose response curve.
The results of this assay are shown in Table 3 in the column labelled “Binding Assay” wherein “A” represents an IC50 of less than or equal to 10 nM; “B” represents an IC50 of greater than 10 nM and less than or equal to 50 nM; and “C” represents an IC50 of greater than 50 nM. Blank values in the table indicate that the particular compound was not tested in this assay.

O=C(C1CC1)N1CCN(c2ccnc3[nH]c(-c4ccc(C(F)(F)F)cc4Cl)cc23)CC1 [Compound 393]
IC50: > 0.05 µM

Cc1nc(-c2[nH]c3nccc(N4CCN(C(=O)OC5COC5)CC4)c3c2C#N)sc1C [Compound 360]
IC50: ≤ 0.01 µM

Cc1ccccc1-c1cc2c(N3CCN(C(=O)C4CC4)CC3)ccnc2[nH]1 [Compound 14]
IC50: > 0.05 µM

Cn1cc(-c2cc3c(N4CCN(C(=O)[C@H]5CCOC5)CC4)ccnc3[nH]2)cn1 [Compound 78]
IC50: ≤ 0.01 µM

Cc1nnc(-c2cc3c(N4CCN(C(=O)OC5COC5)CC4)ccnc3[nH]2)s1 [Compound 181]
IC50: ≤ 0.01 µM

CC(C)Oc1ccc(-c2cc3c(N4CCN(C(=O)C5CC5)CC4)ccnc3[nH]2)c(Cl)c1 [Compound 364]
IC50: 0.01 to 0.05 µM

CCc1ccc(-c2cc3c(N4CCN(C(=O)C5CC5)CC4)ccnc3[nH]2)c(Cl)c1 [Compound 226]
IC50: 0.01 to 0.05 µM

O=C(C1CC1)N1CCN(c2ccnc3[nH]c(-c4ccccc4)cc23)CC1 [Compound 3]
IC50: 0.01 to 0.05 µM

Cn1cc(-c2cc3c(N4CCN(C(=O)CCC5CCCC5)CC4)ccnc3[nH]2)cn1 [Compound 206]
IC50: 0.01 to 0.05 µM

CC(C)(C)c1cnc(-c2cc3c(N4CCN(C(=O)OC5COC5)CC4)ccnc3[nH]2)s1 [Compound 373]
IC50: 0.01 to 0.05 µM

CCOC(=O)N1CCN(c2ccnc3[nH]c(-c4ccc(C5(OC)CCOCC5)cn4)cc23)CC1 [Compound 430]
IC50: ≤ 0.01 µM

CCOC(=O)N1CCN(c2ccnc3[nH]c(-c4cccc(OC)n4)cc23)CC1 [Compound 85]
IC50: ≤ 0.01 µM

CCOC(=O)N1CCN(c2ccnc3[nH]c(-c4cnn(C)c4COC)cc23)CC1 [Compound 166]
IC50: 0.01 to 0.05 µM

O=C(OC1COC1)N1CCN(c2ccnc3[nH]c(-c4nc5c(s4)COCC5)c(Cl)c23)CC1 [Compound 443]
IC50: ≤ 0.01 µM

Cc1coc(-c2cc3c(N4CCN(C(=O)OC5COC5)CC4)ccnc3[nH]2)n1 [Compound 107]
IC50: 0.01 to 0.05 µM

Cc1nc(-c2[nH]c3nccc(N4CCN(C(=O)OC5COC5)CC4)c3c2C)sc1C [Compound 318]
IC50: ≤ 0.01 µM

Cc1nsc(-c2cc3c(N4CCN(C(=O)OC5COC5)CC4)ccnc3[nH]2)n1 [Compound 182]
IC50: 0.01 to 0.05 µM

CCOC(=O)N1CCN(c2ccnc3[nH]c(-c4cnn(C)c4)c(CC)c23)CC1 [Compound 99]
IC50: ≤ 0.01 µM

CCC(=O)c1c(-c2cn(C)c(C)n2)[nH]c2nccc(N3CCN(C(=O)OC4COC4)CC3)c12 [Compound 404]
IC50: 0.01 to 0.05 µM

CCOC(=O)N1CCN(c2ccnc3[nH]c(-c4ncccn4)cc23)CC1 [Compound 9]
IC50: ≤ 0.01 µM

O=C(OC1COC1)N1CCN(c2ccnc3[nH]c(-c4ncc(C(F)(F)F)s4)cc23)CC1 [Compound 409]
IC50: ≤ 0.01 µM

O=C(C1CC1)N1CCN(c2ccnc3[nH]c(-c4cccc(F)c4)cc23)CC1 [Compound 17]
IC50: 0.01 to 0.05 µM

Cn1cc(-c2cc3c(N4CCN(C(=O)OCC5CC5)CC4)ccnc3[nH]2)cn1 [Compound 80]
IC50: ≤ 0.01 µM

Cn1cc(-c2cc3c(N4CCN(C(=O)[C@@H]5CCOC5)CC4)ccnc3[nH]2)cn1 [Compound 79]
IC50: ≤ 0.01 µM

O=C(OC1COC1)N1CCN(c2ccnc3[nH]c(-c4nc(C(F)(F)F)cs4)cc23)CC1 [Compound 410, oxetan-3-yl 4-(2-(4-(trifluoromethyl)thiazol-2-yl)-1H-pyrrolo[2,3-b]pyridin-4-yl)piperazine-1-carboxylate]
IC50: 0.01 to 0.05 µM

CCOC(=O)N1CCN(c2ccnc3[nH]c(-c4cnn(C)c4)c(S(C)(=O)=O)c23)CC1 [Compound 339]
IC50: 0.01 to 0.05 µM

CC(=O)Nc1ccc(-c2cc3c(N4CCN(C(=O)OC5COC5)CC4)ccnc3[nH]2)nc1 [Compound 353]
IC50: 0.01 to 0.05 µM

Cn1cc(-c2cc3c(N4CCN(C(=O)OCC5CCCCO5)CC4)ccnc3[nH]2)cn1 (centres unmarked) [Compound 306]
IC50: ≤ 0.01 µM

Cn1cc(-c2cc3c(N4CCN(C(=O)OCC5(C)COC5)CC4)ccnc3[nH]2)cn1 [Compound 236]
IC50: ≤ 0.01 µM

Cc1nc(-c2cc3c(N4CCN(C(=O)OC5CSC5)CC4)ccnc3[nH]2)cs1 [Compound 261]
IC50: ≤ 0.01 µM

O=C(C1CC1)N1CCN(c2ccnc3[nH]c(-c4ccc(C5CCCCC5)cc4)cc23)CC1 [Compound 319]
IC50: 0.01 to 0.05 µM

Cc1ccc(-c2cc3c(N4CCN(C(=O)C5CC5)CC4)ccnc3[nH]2)cc1 [Compound 16]
IC50: 0.01 to 0.05 µM

O=C(OC1COC1)N1CCN(c2ccnc3[nH]c(-c4ncccn4)cc23)CC1 [Compound 73]
IC50: ≤ 0.01 µM

COc1ccc(-c2cc3c(N4CCN(C(=O)C5CC5)CC4)ccnc3[nH]2)c(F)c1 [Compound 138]
IC50: ≤ 0.01 µM

O=C(C1CC1)N1CCN(c2ccnc3[nH]c(-c4ccc(C5CC5)cc4)cc23)CC1 [Compound 119]
IC50: > 0.05 µM

Cn1cc(-c2cc3c(N4CCN(C(=O)OCC5(C)CC5)CC4)ccnc3[nH]2)cn1 [Compound 142]
IC50: ≤ 0.01 µM

N#Cc1cc(C2(O)CCOCC2)ccc1-c1cc2c(N3CCN(C(=O)OC4COC4)CC3)ccnc2[nH]1 [Compound 465]
IC50: ≤ 0.01 µM

Cc1[nH]ncc1-c1cc2c(N3CCN(C(=O)OC4COC4)CC3)ccnc2[nH]1 [Compound 92]
IC50: ≤ 0.01 µM

CCOC(=O)N1CCN(c2ccnc3[nH]c(-c4ncc(C#N)cn4)cc23)CC1 [Compound 61]
IC50: ≤ 0.01 µM

Cn1cc(-c2cc3c(N4CCN(C(=O)CC#N)CC4)ccnc3[nH]2)cn1 [Compound 5]
IC50: 0.01 to 0.05 µM

Cn1cc(-c2cc3c(N4CCN(C(=O)C5CCC5)CC4)ccnc3[nH]2)cn1 [Compound 20]
IC50: ≤ 0.01 µM

COCC(C)OC(=O)N1CCN(c2ccnc3[nH]c(-c4cnn(C)c4)cc23)CC1 (centres unmarked) [Compound 165]
IC50: 0.01 to 0.05 µM

Cc1ncc(-c2[nH]c3nccc(N4CCN(C(=O)OC5COC5)CC4)c3c2C#N)o1 [Compound 217]
IC50: ≤ 0.01 µM

Cn1cc(C#N)c(-c2cc3c(N4CCN(C(=O)OC5COC5)CC4)ccnc3[nH]2)n1 [Compound 211]
IC50: > 0.05 µM

Cn1cc(-c2cc3c(N4CCN(C(=O)[C@H]5C[C@H](F)C5)CC4)ccnc3[nH]2)cn1 [Compound 94]
IC50: ≤ 0.01 µM

Cc1ccc(-c2cc3c(N4CCN(C(=O)OC5COC5)CC4)ccnc3[nH]2)s1 [Compound 168]
IC50: ≤ 0.01 µM

Cn1cnc(-c2cc3c(N4CCN(C(=O)OC5COC5)CC4)ccnc3[nH]2)n1 [Compound 106]
IC50: 0.01 to 0.05 µM

CCCOc1ccc(-c2cc3c(N4CCN(C(=O)C5CC5)CC4)ccnc3[nH]2)cc1 [Compound 196]
IC50: 0.01 to 0.05 µM

CCS(=O)(=O)CCOC(=O)N1CCN(c2ccnc3[nH]c(-c4cnn(C)c4)cc23)CC1 [Compound 384]
IC50: 0.01 to 0.05 µM

N#Cc1csc(-c2cc3c(N4CCN(C(=O)OC5COC5)CC4)ccnc3[nH]2)n1 [Compound 230]
IC50: ≤ 0.01 µM

Cn1cc(-c2cc3c(N4CCN(C(=O)C(C)(C)CO)CC4)ccnc3[nH]2)cn1 [Compound 101]
IC50: 0.01 to 0.05 µM

COC1(c2ccc(-c3cc4c(N5CCN(C(=O)OC6COC6)CC5)ccnc4[nH]3)nc2)CCOCC1 [Compound 457]
IC50: ≤ 0.01 µM

O=C(C1CC1)N1CCN(c2ccnc3[nH]c(-c4ccc(C(F)(F)F)cc4)cc23)CC1 [Compound 253]
IC50: 0.01 to 0.05 µM

Cc1ccc(-c2cc3c(N4CCN(C(=O)C5CC5)CC4)ccnc3[nH]2)c(F)c1 [Compound 63]
IC50: 0.01 to 0.05 µM

O=C(OC1COC1)N1CCN(c2ccnc3[nH]c(-c4cnccn4)cc23)CC1 [Compound 74]
IC50: 0.01 to 0.05 µM

CCOCC(C)OC(=O)N1CCN(c2ccnc3[nH]c(-c4cnn(C)c4)cc23)CC1 (centres unmarked) [Compound 246]
IC50: ≤ 0.01 µM
